# Test results reported in a melting point compilation (Tetko et al.).
row,SMILES,melting point [°C]
1,CC1(c2cccnc2)NC(=O)NC1=O (configuration not stated),144 to 146
2,O=C(O)C(=Cc1cccs1)n1nnnc1-c1ccccc1,204 to 206
3,CCOC(=O)Cc1c(C)nc(O)nc1C,135 to 137
4,CS(=O)(=O)c1ccc(C(=O)c2ccccc2)cc1,131 to 133
5,O=C1CCS(=O)(=O)CC1,167 to 169
6,ClCc1cccc(Cl)n1,42 to 44
7,CCc1ccc(-n2nc(C(=O)O)c3c2CCC3)cc1,183 to 185
8,Oc1ccc(Oc2ccncc2)cc1,181 to 183
9,O=C(CCl)N1CCOC2CCCCC21 (configuration not stated),67 to 69
10,ClCc1nc2ncc(Br)cc2[nH]1,209 to 211
11,O=C1OCCc2cc3c(=O)[nH]c(=O)[nH]c3nc21,380 to 382
12,COc1cc(C=O)cc(Cl)c1OC,56 to 58
13,NC(=O)NC(=O)C(Cl)c1ccccc1 (configuration not stated),170 to 172
14,O=C(Nc1ccc(Br)cc1Cl)OCC(F)(F)F,70 to 72
15,COc1cc(NC(=O)OC(C)(C)C)c(Cl)cc1C(=O)O,155 to 157
16,COCc1cc(O)ncn1,159 to 161
17,CCCN(C)S(N)(=O)=O,32 to 34
18,Cc1cc(O)nc(-c2ccc(-c3ccccc3)cc2)n1,275 to 277
19,CCCNC(=O)c1ccc(Cl)cc1[N+](=O)[O-],107 to 109
20,CC(C)(O)c1ccc2[nH]ccc2c1,110 to 112
21,Cc1c(C)n(Cc2ccccc2)c2ncnc(N)c12,175 to 177
22,O=C(O)c1ccc(NS(=O)(=O)c2ccc(F)c(Cl)c2)cc1,240 to 242
23,COC(=O)c1cc(Cl)nc2ccccc12,87 to 89
24,Cc1cc(N)c2c(n1)CCCC2,121 to 123

row,SMILES,melting point [°C]
1,Cc1nn(Cc2ccccc2)c(C)c1C=O,72 to 74
2,CC(C)(C)OC(=O)N1CCc2ccccc2C1C(=O)O (configuration not stated),142 to 144
3,CN(C)c1cccc(Oc2ccc(C(N)=S)cc2)c1,182 to 184
4,COc1cccc(-c2nc(C=O)cs2)c1,92 to 94
5,CCn1c2ccccc2c2cc(CNCCCO)ccc21,76 to 78
6,COc1ccc(CNc2c([N+](=O)[O-])ncn2C)cc1OC,196 to 198
7,CC(C)(C)c1ccc(Nc2ncccc2C(N)=S)cc1,152 to 154
8,Nc1ccc(Br)c(Cl)c1[N+](=O)[O-],106 to 108
9,CC(C)(C)Oc1ccc(C(=O)O)cn1,139 to 141
10,COC(=O)COc1ccc(O)cc1,113 to 115
11,Cc1c(C=O)c(=O)n(-c2ccccc2)n1C,162 to 165
12,CCOc1ccc(S(N)(=O)=O)cc1,152 to 154
13,O=c1[nH]c(N2CCOCC2)nc2scc(-c3ccccc3)c12,307 to 309
14,Cc1cc(C)c([N+](=O)[O-])c(C)c1C(=O)O,169 to 171
15,Nc1cccc(C(=O)Nc2ccncc2)c1,224 to 226
16,O=C(Nc1ccc(C(=O)O)c(O)c1)c1cc(Cl)cc(Cl)c1,268 to 270
17,CC(C)(C)Cc1nc(-c2ccc(C(=O)O)cc2)no1,227 to 229
18,CCOC(=O)c1c(N)sc(C)c1CC,45 to 47
19,O=C(NCc1ccccc1)c1cccc(O)c1,140 to 142
20,Cc1ccc(Cl)c2ccc(Cl)nc12,61 to 63
21,ClCc1ccc(-c2ccccc2)cc1,71 to 73
22,Nc1ccc2c(cnn2C(F)F)c1,77 to 79
23,CC(=O)c1ccc(N(C)C)cc1,105 to 107
24,O=S(=O)(Cl)c1ccc(Br)c(C(F)(F)F)c1,29 to 31

row,SMILES,melting point [°C]
1,CNC(=O)c1cccc(C(=O)O)c1,232 to 234
2,Clc1ccc(NCc2ccccn2)cc1,87 to 89
3,NC(=O)NC1CC1,114 to 116
4,O=C1CCc2ccc(Br)cc2N1,176 to 178
5,CCOc1ccc(C2(C(=O)O)CC2)cc1,118 to 120
6,NNc1ncnc2cc(-c3ccc(F)cc3)sc12,237 to 239
7,Cc1sc(N)nc1-c1ccc(Br)cc1,147 to 149
8,CCCS(=O)(=O)NC(C)C(=O)O (configuration not stated),64 to 66
9,O=C(O)C=Cc1cccc2cccnc12,188 to 190
10,COc1ccccc1CNc1cccc2cnccc12,118 to 120
11,O=C(O)CNC(=O)c1ccccc1OC(F)F,66 to 68
12,Cc1cc(=O)[nH]c(-c2ccnc(Cl)c2)n1,269 to 271
13,Cn1ccnc1C(=O)c1ccco1,34 to 36
14,O=Cc1ccc(OCC(=O)Nc2ccccc2)cc1,125 to 127
15,COc1ccc2cc(C(=O)CBr)ccc2c1,108 to 110
16,COc1ccc(C(C)=O)cc1CSCC(=O)O,106 to 108
17,O=C(O)c1cc(Cl)no1,139 to 141
18,NS(=O)(=O)c1cnccn1,166 to 168
19,Cc1cc(C=O)c(C)n1-c1ccc(F)cc1,100 to 102
20,COC(=O)COc1ccc(C(=O)O)cc1,172 to 174
21,O=C(CCl)Nc1ccc(Br)cc1F,133 to 135
22,O=S(=O)(Cl)c1cccc(-n2cnnn2)c1,125 to 127
23,CC(Cl)C(=O)Nc1ccc(F)c(F)c1F (configuration not stated),136 to 139
24,N#CCc1cc(Cl)ccc1Cl,92 to 94
